Test results published in ChEMBL document CHEMBL1147197, “Studies on logP, retention time and QSAR of 2-substituted phenylnitronyl nitroxides as free radical scavengers” (Eur J Med Chem, 2007).

Legend:
[1] = Partition coefficient, log P of the compound; type: physicochemical; conditions: octanol/water
PC-12 [2] = assay: Hydroxyl radical scavenging activity in PC12 cell by survival assay; type: functional, cell-based, Homo sapiens; conditions: Rattus norvegicus
[3] = Retention time, log K of the compound; type: ADME
PC-12 [4] = assay: Nitric oxide radical scavenging activity in PC12 cells by survival assay; type: functional, cell-based, Homo sapiens; conditions: Rattus norvegicus
PC-12 [5] = assay: Hydrogen peroxide radical scavenging activity in PC12 cell by survival assay; type: functional, cell-based, Homo sapiens; conditions: Rattus norvegicus

Row | SMILES | logP [1] | EC50 (PC-12 [2]; read-out: EC50) [µM] | EC50 (PC-12 [2]; read-out: Log EC50 (converted)) [µM] | log K [3] | EC50 (PC-12 [4]; read-out: EC50) [µM] | EC50 (PC-12 [4]; read-out: Log EC50 (converted)) [µM] | EC50 (PC-12 [5]; read-out: EC50) [µM] | EC50 (PC-12 [5]; read-out: Log EC50 (converted)) [µM]
1 | CN(C)c1ccc(C2=[N+]([O-])C(C)(C)C(C)(C)N2[O])cc1 | 2.02 | 31.1 | 30.9 | 1.328 | 9.12 | 9.12 | 29 | 28.8
2 | CC1(C)N([O])C(c2ccc(Cl)cc2)=[N+]([O-])C1(C)C | 2.33 | 74.6 | 74.1 | 1.6 | 63.1 | 63.1 | 58.9 | 58.9
3 | CC1(C)N([O])C(c2ccc(Cl)cc2Cl)=[N+]([O-])C1(C)C | 1.93 | 78.1 | 77.6 | 1.347 | 42.8 | 42.7 | 65 | 64.6
4 | CC1(C)N([O])C(c2ccccc2[N+](=O)[O-])=[N+]([O-])C1(C)C | 0.909 | 74.6 | 74.1 | 0.598 | 47.9 | 47.9 | 60.7 | 60.3
5 | CC1(C)N([O])C(c2ccc(OCC(=O)O)cc2)=[N+]([O-])C1(C)C | -0.518 | 101 | 100 | -0.372 | 91.2 | 91.2 | 74.6 | 74.1
6 | CC1(C)N([O])C(c2cccnc2)=[N+]([O-])C1(C)C | 0.512 |  |  | 0.337 |  |  |  | 
7 | Cc1ccc(C2=[N+]([O-])C(C)(C)C(C)(C)N2[O])cc1 | 1.9 | 65 | 64.6 | 1.309 | 33.1 | 33.1 | 38.3 | 38
8 | COc1ccc(C2=[N+]([O-])C(C)(C)C(C)(C)N2[O])cc1 | 1.62 | 59.3 | 58.9 | 1.101 | 30.9 | 30.9 | 42.9 | 42.7
9 | COc1ccc(C2=[N+]([O-])C(C)(C)C(C)(C)N2[O])c(OC)c1 | 0.77 | 27.7 | 27.5 | 0.62 | 9.33 | 9.33 | 25.3 | 25.1
10 | CC1(C)N([O])C(c2ccccc2F)=[N+]([O-])C1(C)C | 0.822 | 85.7 | 85.1 | 0.577 | 44.7 | 44.7 | 76.4 | 75.9
11 | COc1ccc(C2=[N+]([O-])C(C)(C)C(C)(C)N2[O])cc1O | 0.918 | 54.1 | 53.7 | 0.534 | 27.5 | 27.5 | 40.1 | 39.8
12 | CC1(C)N([O])C(c2ccccc2O)=[N+]([O-])C1(C)C | 1.17 | 55.3 | 55 | 0.729 | 44.7 | 44.7 | 52.8 | 52.5
13 | CC1(C)N([O])C(c2ccc(O)cc2)=[N+]([O-])C1(C)C | 0.619 | 56 | 56.2 | 0.483 | 39.8 | 39.8 | 48.2 | 47.9
14 | COc1cc(C2=[N+]([O-])C(C)(C)C(C)(C)N2[O])ccc1O | 1.14 | 42.9 | 42.7 | 0.558 | 25.7 | 25.7 | 32.6 | 32.4
15 | CC1(C)N([O])C(c2ccc([N+](=O)[O-])cc2)=[N+]([O-])C1(C)C | 1.68 | 167 | 166 | 1.245 | 115 | 115 | 108 | 107
16 | COc1ccc(C2=[N+]([O-])C(C)(C)C(C)(C)N2[O])cc1OC | 1.15 | 29.7 | 29.5 | 0.905 | 8.32 | 8.32 | 30.4 | 30.2
17 | CC1(C)N([O])C(c2ccc3c(c2)OCO3)=[N+]([O-])C1(C)C | 1.51 | 47.1 | 46.8 | 1.039 | 19.5 | 19.5 | 29.7 | 29.5
18 | CC1(C)N([O])C(c2ccc(Br)cc2)=[N+]([O-])C1(C)C | 2.46 | 60.7 | 60.3 | 1.713 | 46.8 | 46.8 | 55.3 | 55
19 | CC1(C)N([O])C(c2cccc([N+](=O)[O-])c2)=[N+]([O-])C1(C)C | 1.64 | 63.5 | 63.1 | 1.157 | 87.1 | 87.1 | 62.1 | 61.7
20 | CC1(C)N([O])C(c2cccc(O)c2)=[N+]([O-])C1(C)C | 1.14 | 69.6 | 69.2 | 0.546 | 61.7 | 61.7 | 57.9 | 57.5
21 | CC1(C)N([O])C(c2ccco2)=[N+]([O-])C1(C)C | 0.615 |  |  | 0.405 |  |  |  | 
22 | CC1(C)N([O])C(c2ccccc2)=[N+]([O-])C1(C)C | 1.36 | 66.5 | 66.1 | 0.918 | 67.6 | 67.6 | 51.6 | 51.3
